Assay results taken from US8530493B2, “Indolopyridines as Eg5 kinesin modulators” (4SC AG, priority 2006, dated 2013).

tested on: RKO p21 uninduced (proliferating) colon adenocarcinoma cells; test: Alamar Blue cell viability assay, RKO p21 uninduced (proliferating); assay type: cell-based; conditions: Homo sapiens, Table B3, anti-proliferative/cytotoxic activity, 72 hours, read-out: −log EC50 RKO p21 uninduced (proliferating) (converted)
Outline: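 RKO p21 or p27 subclones grown without Ponasterone A, i.e. proliferating, exposed 24 h after seeding to semi-log compound dilutions in DMEM/10% FCS (1% DMSO controls) for 72 h at 37° C. Alamar Blue fluorescence (544/590 nm) read relative to untreated cells; EC50 from dose-response curves, given as −log EC50 (mol/l).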

`COc1cc2c3c([nH]c2cc1F)[C@@H](c1cccc(O)c1)N1C(=O)N(CCCN2CC=CCC2)C(=O)[C@]1(C)C3` (racemic) [Example 326, (3aSR,10RS)-2-[3-(3,6-Dihydro-2H-pyridin-1-yl)-propyl]-7-fluoro-10-(3-hydroxy-phenyl)-6-methoxy-3a-methyl-3a,4,9,10-tetrahydro-2,9,10a-triaza-cyclopenta[b]fluorene-1,3-dione] and `CCOc1ccc2[nH]c3c(c2c1)C[C@@]1(C)C(=O)N(CCCN2CC=CCC2)C(=O)N1[C@@H]3c1cccc(O)c1` (racemic) [Example 208, (3aSR,10RS)-2-[3-(3,6-Dihydro-2H-pyridin-1-yl)-propyl]-6-ethoxy-10-(3-hydroyx-phenyl)-3a-methyl-3a,4,9,10-tetrahydro-2,9,10a-triaza-cyclopenta[b]fluorene-1,3-dione] fall in the same range of EC50: 39.8 to 251 nM for the first, 39.8 to 251 nM for the second.

`CN(CCO)CCN1C(=O)N2[C@H](c3cccc(O)c3)c3[nH]c4cc(F)c(Cl)cc4c3C[C@@]2(C)C1=O` (racemic) [Example 348, (3aSR,10RS)-6-Chloro-7-fluoro-2-{2-[(2-hydroxy-ethyl)-methyl-amino]-ethyl}-10-(3-hydroxy-phenyl)-3a-methyl-3a,4,9,10-tetrahydro-2,9,10a-triaza-cyclopenta[b]fluorene-1,3-dione] and `CCN(CCO)CCCN1C(=O)N2[C@H](c3cccc(O)c3)c3[nH]c4cc(F)c(Cl)cc4c3C[C@@]2(C)C1=O` (racemic) [Example 470, (3aSR,10RS)-6-Chloro-2-{3-[ethyl-(2-hydroxy-ethyl)-amino]-propyl}-7-fluoro-10-(3-hydroxy-phenyl)-3a-methyl-3a,4,9,10-tetrahydro-2,9,10a-triaza-cyclopenta[b]fluorene-1,3-dione] cannot be ordered by EC50: 39.8 to 251 nM for the first, no more than 39.8 nM for the second.

`C[C@@]12Cc3c([nH]c4ccc(OC(F)F)cc34)[C@@H](c3cccc(O)c3)N1C(=O)N(CCN1CC=CCC1)C2=O` (racemic) [Example 281, (3aSR,10RS)-6-(1,1-Difluoro-methoxy)-2-[2-(3,6-dihydro-2H-pyridin-1-yl)-ethyl]-10-(3-hydroxy-phenyl)-3a-methyl-3a,4,9,10-tetrahydro-2,9,10a-triaza-cyclopenta[b]fluorene-1,3-dione] and `CC(=O)N1CCN(CCCN2C(=O)N3[C@H](c4cccc(O)c4)c4[nH]c5ccc(OC(F)F)cc5c4C[C@@]3(C)C2=O)CC1` (racemic) [Example 241, (3aSR,10RS)-2-[3-(4-Acetyl-piperazin-1-yl)-propyl]-6-(1,1-difluoro-methoxy)-10-(3-hydroxy-phenyl)-3a-methyl-3a,4,9,10-tetrahydro-2,9,10a-triaza-cyclopenta[b]fluoroene-1,3-dione] fall in the same range of EC50: 39.8 to 251 nM for the first, 39.8 to 251 nM for the second.

`CCNCCN1C(=O)N2[C@H](c3cccc(O)c3)c3[nH]c4cc(F)c(Cl)cc4c3C[C@@]2(C)C1=O` (racemic) [Example 338, (3aSR,10RS)-6-Chloro-2-(2-ethylamino-ethyl)-7-fluoro-10-(3-hydroxy-phenyl)-3a-methyl-3a,4,9,10-tetrahydro-2,9,10a-triaza-cyclopenta[b]fluorene-1,3-dione] and `C[C@@]12Cc3c([nH]c4cc(F)c(Cl)cc34)[C@@H](c3cccc(O)c3)N1C(=O)N(CCN1CCCC1)C2=O` (racemic) [Example 354, (3aSR,10RS)-6-Chloro-7-fluoro-10-(3-hydroxy-phenyl)-3a-methyl-2-(2-pyrrolidin-1-yl-ethyl)-3a,4,9,10-tetrahydro-2,9,10a-triaza-cyclopenta[b]fluorene-1,3-dione] cannot be ordered by EC50: no more than 39.8 nM for the first, no more than 39.8 nM for the second.

`COc1cc2c3c([nH]c2cc1F)[C@@H](c1cccc(O)c1)N1C(=O)N(CCCNCC2CC2)C(=O)[C@]1(C)C3` (racemic) [Example 304, (3aSR,10RS)-2-[3-(Cyclopropylmethyl-amino)-propyl]-7-fluoro-10-(3-hydroyx-phenyl)-6-methoxy-3a-methyl-3a,4,9,10-tetrahydro-2,9,10a-triaza-cyclopenta[b]fluorene-1,3-dione] and `C=CCN(C)CCN1C(=O)N2[C@H](c3cccc(O)c3)c3[nH]c4cc(F)c(OC)cc4c3C[C@@]2(C)C1=O` (racemic) [Example 452, (3aSR,10RS)-2-[2-(Allyl-methyl-amino)-ethyl]-7-fluoro-10-(3-hydroxy-phenyl)-6-methoxy-3a-methyl-3a,4,9,10-tetrahydro-2,9,10a-triaza-cyclopenta[b]fluorene-1,3-dione] fall in the same range of EC50: 39.8 to 251 nM for the first, 39.8 to 251 nM for the second.

`COCCNCCN1C(=O)N2[C@H](c3cccc(O)c3)c3[nH]c4ccc(OC(F)F)cc4c3C[C@@]2(C)C1=O` (racemic) [Example 271, (3aSR,10RS)-6-(1,1-Difluoro-methoxy)-10-(3-hydroxy-phenyl)-2-[2-(2-methoxy-ethylamino)-ethyl]-3a-methyl-3a,4,9,10-tetrahydro-2,9,10a-triaza-cyclopenta[b]fluorene-1,3-dione] and `CC(C)CNCCCN1C(=O)N2[C@H](c3cccc(O)c3)c3[nH]c4ccc(OC(F)F)cc4c3C[C@@]2(C)C1=O` (racemic) [Example 199, (3aSR,10RS)-6-(1,1-Difluoro-methoxy)-10-(3-hydroxy-phenyl)-2-(3-isobutylamino-propyl)-3a-methyl-3a,4,9,10-tetrahydro-2,9,10a-triaza-cyclopenta[b]fluorene-1,3-dione] cannot be ordered by EC50: no more than 39.8 nM for the first, 39.8 to 251 nM for the second.

`C#CCNCCCN1C(=O)N2[C@H](c3cccc(O)c3)c3[nH]c4ccc(OC)cc4c3C[C@@]2(C)C1=O` [Example 539, (3aS,10R)-10-(3-Hydroxy-phenyl)-6-methoxy-3a-methyl-2-(3-prop-2-ynylamino-propyl)-3a,4,9,10-tetrahydro-2,9,10a-triaza-cyclopenta[b]fluorene-1,3-dione] and `CCOc1ccc2[nH]c3c(c2c1)C[C@@]1(C)C(=O)N(CCCNC)C(=O)N1[C@@H]3c1cccc(O)c1` (racemic) [Example 186, (3aSR,10RS)-6-Ethoxy-10-(3-hydroxy-phenyl)-3a-methyl-2-(3-methylamino-propyl)-3a,4,9,10-tetrahydro-2,9,10a-triaza-cyclopenta[b]fluorene-1,3-dione] cannot be ordered by EC50: no more than 39.8 nM for the first, 39.8 to 251 nM for the second.

`C[C@@]12Cc3c([nH]c4ccc(Br)cc34)[C@@H](c3cccc(O)c3)N1C(=O)N(CCCNCCO)C2=O` (racemic) [Example 235, (3aSR,10RS)-6-Bromo-2-[3-(2-hydroxy-ethylamino)-propyl]-10-(3-hydroxy-phenyl)-3a-methyl-3a,4,9,10-tetrahydro-2,9,10a-triaza-cyclopenta[b]fluorene-1,3-dione] and `CCN(CCO)CCN1C(=O)N2[C@H](c3cccc(O)c3)c3[nH]c4ccc(OC(F)F)cc4c3C[C@@]2(C)C1=O` (racemic) [Example 277, (3aSR,10RS)-6-(1,1-Difluoro-methoxy)-2-{2-[ethyl-(2-hydroxy-ethyl)-amino]-ethyl}-10-(3-hydroxy-phenyl)-3a-methyl-3a,4,9,10-tetrahydro-2,9,10a-triaza-cyclopenta[b]fluorene-1,3-dione] cannot be ordered by EC50: no more than 39.8 nM for the first, 39.8 to 251 nM for the second.

Work on `COc1ccc2[nH]c3c(c2c1F)C[C@@]1(C)C(=O)N(CCNC(C)(C)C)C(=O)N1[C@@H]3c1cccc(O)c1` (racemic) [Example 414, (3aSR,10RS)-2-(2-tert-Butylamino-ethyl)-5-fluoro-10-(3-hydroxy-phenyl)-6-methoxy-3a-methyl-3a,4,9,10-tetrahydro-2,9,10a-triaza-cyclopenta[b]fluorene-1,3-dinone] yielded an EC50 of 39.8 to 251 nM.
